The values below are quoted from earlier work in patent US20150275302A1, “DETERMINATION OF SINGLE NUCLEOTIDE POLYMORPHISMS USEFUL TO PREDICT RESPONSE FOR RASAGILINE” (TEVA PHARMACEUTICAL INDUSTRIES, LTD., priority 2014, published 2015).

The conditions of this series: in vivo.

As to `C#CCN[C@@H]1CCc2ccccc21` [rasagiline, R(+)-N-propargyl-l-aminoindan], the absolute bioavailability entry is “about 36%”.
